How the values were obtained:
[1] = tested on: Trypanosoma brucei rhodesiense; assay: microbe, parasite or virus in culture; conditions: STIB900, 72 h
Description: Antiprotozoal activity against Trypanosoma brucei rhodesiense STIB900 trypomastigotes incubated for 72 hrs by resazurin dye based fluorimetric analysis

in vitro [2] = conditions: mouse, liver microsomes
Description: Metabolic stability in mouse liver microsomes assessed as intrinsic clearance at 0.5 uM incubated for 30 mins by LC-MS/MS analysis

Leishmania infantum = assay: microbe, parasite or virus in culture; conditions: for IC50: MHOM/MA(BE)/67/ITMAP263, 120 h; for IC90: MHOM/MA(BE)/67/ITMAP263, in Mus musculus, 120 h
Description: Antileishmanial activity against amastigote stage of Leishmania infantum MHOM/MA(BE)/67/ITMAP263 infected in mouse peritoneal macrophage assessed as parasite growth inhibition incubated for 5 days by Giemsa staining based assay

in vitro [3] = conditions: human, MRC5 SV2 cells
Description: (§1) Cytotoxicity against human MRC5 SV2 cells assessed as reduction in cell viability incubated for 3 days by fluorimetry

Macrophage = assay: cells; conditions: Mus musculus, 72 h
Description: (§2) Cytotoxicity against mouse peritoneal Macrophage cells assessed as reduction in cell viability incubated for 3 days by fluorimetry

in vitro [4] = conditions: mouse, peritoneal macrophages
Description: as §2

Trypanosoma brucei = assay: microbe, parasite or virus in culture; conditions: Squib 427, 72 h
Description: Antitrypanosomal activity against Trypanosoma brucei Squib 427 assessed as reduction in parasite growth incubated for 72 hrs by resazurin dye based fluorimetric analysis

physchem = conditions: buffer, pH 7.4
Description: Lipophilicity, logD of compound at pH 7.4 by HPLC analysis

in vitro [5] = conditions: human, liver microsomes
Description: Metabolic stability in human liver microsomes assessed as intrinsic clearance at 0.5 uM incubated for 30 mins by LC-MS/MS analysis

cells = conditions: Homo sapiens, MRC-5 SV2, 72 h
Description: as §1

Trypanosoma cruzi = assay: microbe, parasite or virus in culture; conditions: Tulahuen CL2, MRC-5 SV2, 168 h
Description: Antitrypanosomal activity against Trypanosoma cruzi Tulahuen CL2 amastigotes infected in human MRC5 SV2 cells incubated for 7 days by chlorophenol red beta-D-galactopyranoside substrate based spectrophotometric assay

in vitro [6] = conditions: PAMPA
Description: Effective permeability of compound by PAMPA assay

in vitro [7] = conditions: human, MRC5 SV2 cells; remark: listed apart in the source
Description: Selectivity index, ratio of IC50 for human MRC5 SV2 cells to IC50 for Trypanosoma cruzi Tulahuen CL2 amastigotes infected in human MRC5 SV2 cells

| SMILES | IC50 [1] | IC90 [1] | CLint scaled at 0.5 h, 0.5 µM (in vitro [2]) | microsomal CLint at 0.5 h, 0.5 µM (in vitro [2]) | IC50 (Leishmania infantum) | IC90 (Leishmania infantum) | IC90 at 72 h (in vitro [3]) | IC50 (Macrophage) | IC90 at 72 h (in vitro [4]) | IC50 (Trypanosoma brucei) | IC90 (Trypanosoma brucei) | logD (physchem) | CLint scaled at 0.5 h, 0.5 µM (in vitro [5]) | microsomal CLint at 0.5 h, 0.5 µM (in vitro [5]) | IC50 (cells) | IC50 (Trypanosoma cruzi) | IC90 (Trypanosoma cruzi) | Papp (in vitro [6]) | selectivity ratio (in vitro [7]) |
| --- | --- | --- | --- | --- | --- | --- | --- | --- | --- | --- | --- | --- | --- | --- | --- | --- | --- | --- | --- |
| O=C(NCCc1nc2ncc(Cl)cc2[nH]1)c1ccccc1 | 64 µM | 64 µM | < 95 mL/min/kg | < 23 µL/min/mg | 64 µM | 64 µM | 64 µM | 64 µM | 64 µM | 64 µM | 64 µM | 2.49 | < 31.7 mL/min/kg | < 23 µL/min/mg | 64 µM | 64 µM | 64 µM | 8.77 ×10⁻⁶ cm/s |  |
| O=C(c1ccccc1)N1CC=C(c2cc3ccccc3[nH]2)CC1 | 64 µM | 64 µM | 13200 mL/min/kg | 1370 µL/min/mg | 64 µM | 64 µM | 64 µM | 64 µM | 64 µM | 64 µM | 64 µM | 4.15 | 201 mL/min/kg | 61.9 µL/min/mg | 64 µM | 41.9 µM | 64 µM | 4.86 ×10⁻⁶ cm/s |  |
| N#Cc1ccc(C(=O)N2CCCC(c3cc4ncccc4[nH]3)C2)cc1 (stereo not drawn) | 64 µM | 64 µM |  |  | 64 µM | 64 µM | 64 µM | 64 µM | 64 µM | 64 µM | 64 µM | 2.37 | 51.5 mL/min/kg | < 23 µL/min/mg | 64 µM | 25.6 µM | 59 µM | 0.379 ×10⁻⁶ cm/s | 2.49 |
| CN(CC(O)c1cc2ncccc2n1S(=O)(=O)c1ccccc1)C(=O)c1ccccc1 (stereo not drawn) | 59.4 µM | 64 µM | 2050 mL/min/kg | 498 µL/min/mg | 11.4 µM | 15.1 µM | 64 µM | 11.3 µM | 14.9 µM | 64 µM | 64 µM | 3.31 | 223 mL/min/kg | 160 µL/min/mg | 64 µM | 64 µM | 64 µM | 15.7 ×10⁻⁶ cm/s |  |
| O=C(c1ccc(F)cc1)N1CC=C(c2cc3ncccc3[nH]2)CC1 | 39.4 µM | 64 µM | ≥ 623 mL/min/kg | 195 µL/min/mg | 39.1 µM | 58.5 µM | 64 µM | 64 µM | 64 µM | 64 µM | 64 µM | 3.06 | ≥ 38 mL/min/kg | 35.2 µL/min/mg | 64 µM | 2.54 µM | 64 µM | 0.907 ×10⁻⁶ cm/s | 25.1 |
| COc1cccc(C(=O)N2CCCC(c3cc4ncccc4[nH]3)C2)c1OC (stereo not drawn) | 31 µM | 32 µM | 2600 mL/min/kg |  | 32 µM | 32 µM | 32 µM | 32 µM | 32 µM | 32 µM | 32 µM |  | 110 mL/min/kg |  | 32 µM | 4.03 µM | 7.52 µM |  | 8 |
| O=C(CCc1nc2ncc(Cl)cc2[nH]1)Nc1cccc(F)c1 | 64 µM | 64 µM | > 963 mL/min/kg | 301 µL/min/mg | 64 µM | 64 µM | 64 µM | 64 µM | 64 µM | 64 µM | 64 µM | 3.24 | ≥ 25 mL/min/kg | < 23 µL/min/mg | 64 µM | 64 µM | 64 µM | 6.13 ×10⁻⁶ cm/s |  |
| O=C(c1cc(C2CC2)on1)N1CCCC(c2cc3ncccc3[nH]2)C1 (stereo not drawn) | 25.2 µM | 32 µM | 1830 mL/min/kg |  | 32 µM | 32 µM | 32 µM | 32 µM | 32 µM | 32 µM | 32 µM |  | 32.7 mL/min/kg |  | 32 µM | 3.92 µM | 7.5 µM |  | 8.15 |
| O=C(CCc1nc2ncc(Cl)cc2[nH]1)Nc1ccccc1 | 64 µM | 64 µM | 516 mL/min/kg | 120 µL/min/mg | 64 µM | 64 µM | 64 µM | 64 µM | 64 µM | 64 µM | 64 µM | 2.81 | < 33.3 mL/min/kg | < 23 µL/min/mg | 64 µM | 64 µM | 64 µM | 5.97 ×10⁻⁶ cm/s |  |
| COc1ccc(C(=O)N2CCCC(c3cc4ncccc4[nH]3)C2)cc1OC (stereo not drawn) | 64 µM | 64 µM | 564 mL/min/kg | 137 µL/min/mg | 64 µM | 64 µM | 64 µM | 64 µM | 64 µM | 64 µM | 64 µM | 2.61 | < 32.2 mL/min/kg | < 23 µL/min/mg | 64 µM | 8.96 µM | 64 µM | 1.58 ×10⁻⁶ cm/s | 7.15 |
| COc1ccc2cc(C(=O)N3CCCC(c4cc5ncccc5[nH]4)C3)[nH]c2c1 (stereo not drawn) | 32 µM | 32 µM | 1000 mL/min/kg |  | 32 µM | 32 µM | 32 µM | 32 µM | 32 µM | 32 µM | 32 µM |  | 1620 mL/min/kg |  | 32 µM | 4.03 µM | 7.62 µM |  | 7.95 |
| O=C(OCc1ccccc1)N1CCCC(c2cn3cccnc3n2)C1 (stereo not drawn) | 55.4 µM | 64 µM |  |  | 64 µM | 64 µM | 64 µM | 64 µM | 64 µM | 64 µM | 64 µM |  |  |  | 64 µM | 34.5 µM | 64 µM |  | 1.88 |

Source: ChEMBL document CHEMBL4342426, “Structure-activity relationship of 4-azaindole-2-piperidine derivatives as agents against Trypanosoma cruzi” (Bioorg Med Chem Lett, 2020)
